Measurements from PubChem BioAssay (NCI).
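Dose response: 5 concentrations. Exposure: 48 h. Format: 96-well plates. Endpoint: linear interpolation; highest concentration if not reached. TGI denotes the concentration required for complete inhibition of growth.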

Legend:
Experiment in all cases: NCI tumour cell line growth inhibition, 48 h
U251 CNS = system: U251 CNS
OVCAR-5 ovarian = system: OVCAR-5 ovarian
COLO 205 colon = system: COLO 205 colon
MDA-MB-435 = system: MDA-MB-435
UACC-62 melanoma = system: UACC-62 melanoma
UO-31 renal = system: UO-31 renal
HCT-116 colon = system: HCT-116 colon
LOX IMVI melanoma = system: LOX IMVI melanoma
UACC-257 melanoma = system: UACC-257 melanoma
OVCAR-3 ovarian = system: OVCAR-3 ovarian
RXF 393 renal = system: RXF 393 renal
SNB-75 CNS = system: SNB-75 CNS
MALME-3M melanoma = system: MALME-3M melanoma
SF-539 CNS = system: SF-539 CNS
SK-OV-3 ovarian = system: SK-OV-3 ovarian
A549 NSCLC = system: A549 NSCLC
HOP-62 NSCLC = system: HOP-62 NSCLC
HCT-15 colon = system: HCT-15 colon
MOLT-4 leukemia = system: MOLT-4 leukemia

SMILES	TGI (U251 CNS)	TGI (OVCAR-5 ovarian)	TGI (COLO 205 colon)	TGI (MDA-MB-435)	TGI (UACC-62 melanoma)	TGI (UO-31 renal)	TGI (HCT-116 colon)	TGI (LOX IMVI melanoma)	TGI (UACC-257 melanoma)	TGI (OVCAR-3 ovarian)	TGI (RXF 393 renal)	TGI (SNB-75 CNS)	TGI (MALME-3M melanoma)	TGI (SF-539 CNS)	TGI (SK-OV-3 ovarian)	TGI (A549 NSCLC)	TGI (HOP-62 NSCLC)	TGI (HCT-15 colon)	TGI (MOLT-4 leukemia)
CCCCCCCCCCCCCCCCCCNc1ccn(C2OC(COP(=O)(O)OCC(COP(=O)(O)OCC3OC(n4cc(C)c(=O)[nH]c4=O)CC3N=[N+]=[N-])OCCCCCCCCCCCCCCCCCC)C(O)C2O)c(=O)n1 (stereo not drawn)	27.8 µM	> 100 µM	> 100 µM	> 100 µM	> 100 µM	33.1 µM	> 100 µM	54.2 µM	> 100 µM	> 100 µM	> 100 µM	> 100 µM	> 100 µM	88.7 µM	> 100 µM	> 100 µM	> 100 µM	> 100 µM	> 100 µM
Cn1c(=O)c2c(nc(N3CCOCC3)n2CCCNCC(O)c2ccc(O)c(O)c2)n(C)c1=O (stereo not drawn)	> 100 µM	> 100 µM	> 100 µM	> 100 µM	> 100 µM	> 100 µM	> 100 µM	> 100 µM	> 100 µM	> 100 µM	> 100 µM	> 100 µM	> 100 µM	> 100 µM	> 100 µM	> 100 µM	> 100 µM	> 100 µM	> 100 µM
